Among the data in a melting point compilation (Tetko et al.; mined from patent text by program, amines drawn as free bases though some values may be those of a salt) are melting point values, retold here.

Molecules are shown by their SMILES.

As to `CCC(C(=O)c1ccc(Cl)cc1)n1ncn(-c2ccc(N3CCN(C(=O)Cc4ccccc4)CC3)cc2)c1=O` (centres undefined), the melting point worked out at 172 °C.

Regarding `O=C1c2ccccc2C(=O)c2c1c(Oc1ccc(CCCO)cc1)c1ccc(Sc3ccccc3)cc1c2Oc1ccc(CCCO)cc1`, the melting point is 140 to 148 °C.

With `Clc1nc(Cl)nc(NNc2nc(Cl)nc(Cl)n2)n1`, the melting point was > 250 °C.

Regarding `CC(C)C[C@H](NC(=O)C1(N)CCCCC1)C(=O)NCC(N)=O`, the melting point fell in the range of 136 to 147 °C.

`COC(=O)c1c(Cl)cc(Cl)cc1NC(=O)CSc1ccc(NS(=O)(=O)c2ccc(Cl)cc2)cc1`: the melting point fell in the range of 120 to 123 °C.

With `CC(=O)COC(=O)C=CC(=O)OCC(C)=O`, the melting point was 121 to 123 °C.

`c1ccc(Cn2c(-c3ccc4c(c3)OCO4)nc3ccccc32)cc1` displayed a melting point of 143 to 145 °C.

`C#CCn1c(-c2ccccc2)nc(O)c(CC)c1=O` showed a melting point of 159 to 160 °C.

`CC(CC(F)(F)CC(C)(C)O)C1CCC2C3CC=C4CC(O)CCC4(C)C3CCC12C` (centres undefined): the melting point was 148 to 149 °C.

In the case of `CCOC(=O)c1c(-c2ccc(OC)c(OC)c2)c2cc(Cl)ccc2[nH]c1=O`, the melting point is 209 to 210 °C.

In turn, `CCOC(=O)C1=C(C)NC(COC(C)=O)=C(C(=O)OCC)C1c1ccccc1[N+](=O)[O-]` (centres undefined) gave a melting point of 89 to 90 °C.

As for `CC(C)(C)c1cc(C(=O)NC2CCCCC2)cc(C(C)(C)C)c1O`, the melting point was in the range of 236 to 237 °C.

`CS(=O)(=O)c1ccc(Cn2ccc(OCc3ccc(F)cc3F)c(Cl)c2=O)cc1` yielded a melting point of 223 to 225 °C.

`CCCN(CCC)C1Cc2cccc3[nH]c(=S)n(c23)C1` (centres undefined): the melting point is 150 to 151 °C.

`CCCCCS(=O)(=O)NC(=O)/C=C/c1ccc(C)n1Cc1ccc(Cl)cc1Cl` displayed a melting point of 189 to 190 °C.

`O=C(O)CCCc1cc2nc(Cl)ccc2n1S(=O)(=O)c1ccc2snnc2c1` returned a melting point of 227 °C.

`COc1ccc(C(=O)Cc2ccccc2)c(Cl)c1Cl`: the melting point lay within 125 to 127 °C.

In turn, `Cc1cccc(N=C2NCCN2)c1C` came in with a melting point of 141 to 144 °C.

The molecule `CCCOc1ncc(S(C)(=O)=O)cc1-c1nc2c(CC)nn(C[C@@H]3CCCN3C(=O)OC(C)(C)C)c2c(=O)[nH]1` had a melting point of 98 to 104 °C.

Molecule `O=C(O)Cc1ccc2c(c1)C(=O)C(=Cc1ccccc1)C2` displayed a melting point of 202 to 204 °C.

Take `CCOC(=O)c1cnc2c(cnn2-c2ccccc2)c1N(Cc1cccnc1)S(=O)(=O)c1ccc(OC)cc1`: the melting point is 89 to 91 °C.

The molecule `O=C(O)CCc1cnoc1-c1ccc(Cl)s1` returned a melting point of 138 to 139 °C.

The molecule `CSc1ccc2[nH]c(C(=O)O)cc(=O)c2c1` displayed a melting point of 256 to 257 °C.

On to `C#CC1(O)C(CO)OC(n2ccc(=O)[nH]c2=O)C1O` (centres undefined), for which the melting point was in the range of 226 to 228 °C.

`O=C(NCCCCc1ccc(-c2ccc(=O)[nH]n2)cc1)c1cccnc1` registered a melting point of 190 to 191 °C.

Take `COC(=O)c1oc2cc(OCc3nc(-c4ccccc4)oc3C)ccc2c1-c1ccccc1`: the melting point was 139 to 140 °C.

On to `COC(=O)[C@]1(C)Cc2c([nH]c3ccc(Br)cc23)[C@@H](c2cccc(O)c2)N1` (racemic), for which the melting point lay in the range of 240 to 241 °C.

In turn, `CC(=O)c1nc(-c2ccccc2)oc1C` displayed a melting point of 74 to 76 °C.

The molecule `CCn1cnc(S(=O)(=O)O)c1` showed a melting point of 278 °C.

The molecule `CCCc1nn(C)c2c(=O)[nH]c(Cc3ccccc3NS(=O)(=O)CCCN(C)C)nc12` came in with a melting point of 202 to 204 °C.

`CCOC(=O)C(Cc1cscn1)NC(C)=O` (racemic) came in with a melting point of 58 to 62 °C.

Turning to `C#CCON=C(C(=O)OC)c1nsc(NC(=O)OC(C)(C)C)n1`, the melting point lay within 72 to 75 °C.

The molecule `Cc1cc(CNC(=O)c2sc(N3C[C@@H](C)N(Cc4cc(F)cc(F)c4)C3=O)nc2C)no1` returned a melting point of 63 to 66 °C.

In turn, `CC(C)C(=O)N[C@H]1CC[C@H](CCN2CCN(c3nccc4c3CCO4)CC2)CC1` gave a melting point of 219 °C.

In turn, `CCOC(=O)c1cn(CC)c2cc(-c3csc(CN(CCOC(C)=O)C(C)=O)n3)c(F)cc2c1=O` came in with a melting point of 148 to 152 °C.

As to `COc1ccccc1N1CCN(S(=O)(=O)c2ccc(/C=C/C(=O)NO)cc2)CC1`, the melting point is 225 to 226 °C.

In turn, `Cn1cc(-c2cc(-c3cnc4[nH]ncc4c3)ccn2)n(-c2ccc(C(C)(C)C#N)cc2)c1=O` returned a melting point of 294 °C.

In turn, `CCN(CC)CCCN1C(=O)NC(Cc2c[nH]c3ccc(OC)cc23)C1=O` (centres undefined) registered a melting point of 136 °C.

For the molecule `CC(c1ccc(I)cc1)C(O)(Cn1cncn1)c1ccc(F)cc1F` (centres undefined), the melting point lay in the range of 169 to 171 °C.

Consider `COc1c(C)c(C)cc(C)c1C(O)(c1ccc(C(C)C)cc1)C1CCN(Cc2ccccc2)CC1` (centres undefined), for which the melting point was in the range of 154 to 156 °C.

`CCOC(=O)/C=C(C)/C=C/C1=C(Br)CCC1` yielded a melting point of 85 to 86 °C.

Consider `CC(C)c1ccc(NC(=O)Oc2ccc3c(c2)CCN3Cc2ccccc2)cc1`, for which the melting point was in the range of 145 to 150 °C.

In turn, `CCC(CC(=O)NC(=O)OC(C)(C)C)Nc1ccc(Cl)cc1` (centres undefined) displayed a melting point of 93 to 94 °C.

In turn, `Cc1cc(C(N)(C(F)(F)F)C(F)(F)F)cc(C)c1OCC(=O)O` showed a melting point of 138 °C.

Molecule `COc1ccc2c(c1)cc(C(=O)c1cc3ccccc3n1S(=O)(=O)c1ccccc1)n2S(=O)(=O)c1ccccc1` returned a melting point of 205 °C.

`O=c1c2cccc3c2c(cn1C1CN2CCC1CC2)CC3` (racemic) came in with a melting point of 146 to 147 °C.

The molecule `CCOC(=O)/C(=N\OCC=C(Cl)Cl)c1csc(N)n1` yielded a melting point of 135 to 136 °C.

The molecule `O=C(Cl)c1ccc(Oc2ccc(Oc3ccccc3)cc2)cc1` yielded a melting point of 85 to 89 °C.

Regarding `O=C(O)c1ccc(Nc2nccc(-c3cccnc3)n2)cc1`, the melting point is 311 to 317 °C.

Regarding `Fc1ccc(-c2nccc(Oc3cccc(C(F)(F)F)c3)n2)cc1`, the melting point worked out at 52 °C.

The molecule `CC(C)(C)OC(=O)Nc1cc(OCC2COC(C)(C)O2)c(C#Cc2ccccc2)cc1NC(=O)CC(=O)c1cccc(C#N)c1` (centres undefined) had a melting point of 132 to 134 °C.

For the molecule `CC(C)(C)OC(=O)NCCC[C@H](NC(=O)OC(C)(C)C)C(=O)NCCCC(c1ccc(F)cc1)c1ccc(F)cc1`, the melting point fell in the range of 54 to 59 °C.

The molecule `Cc1cc2c(-c3cccc(/C=C/c4nnn[nH]4)c3)c(CC(=O)Nc3ccc(F)cc3C(F)(F)F)c(=O)oc2cc1Cl` had a melting point of 216 to 218 °C.

On to `CCN1C(=O)C(C(=O)Nc2ccc(F)cc2)c2cc3c(cc21)CC(C)(C)O3` (centres undefined), for which the melting point fell in the range of 160 to 162 °C.

For the molecule `COc1c(C=O)ccc2c1oc1ccccc12`, the melting point lay within 178 to 180 °C.

Take `COc1cccc(C(=O)O)c1NC(=O)C(C)(C)C`: the melting point fell in the range of 117 to 120 °C.

For the molecule `O=C(O)COc1ccc(SCc2cccc(OCc3ccc(Cl)c(C(F)(F)F)c3)c2)c2c1CCC2`, the melting point is 121 to 122 °C.

As for `COCC1CN(c2ccc3ccc(N)cc3c2)C(=O)O1` (centres undefined), the melting point was in the range of 98 to 99 °C.

For `CN1C(=O)C(F)N=C(c2ccccc2Cl)c2cc(Cl)ccc21` (centres undefined), the melting point lay within 204 to 205 °C.

Take `O=C(O)c1ccc(C(=O)Nc2cc3c4c(c2)CCCC4CCC3)nc1`: the melting point lay within 252 to 253 °C.

For the molecule `CC(C)C(NC(=O)c1ccc(C(=O)NCC(=O)OCc2ccccc2)cc1)C(=O)N1CCCC1C(=O)NC(C(=O)C(F)(F)F)C(C)C` (mixture of isomers), the melting point was in the range of 77 to 78 °C.

Take `CCCCCC(C)N(Cc1ccc(CC(C)(C)C)s1)C(Nc1ccc(OC)cc1OC)=C1C(=O)OC(C)(C)OC1=O` (centres undefined): the melting point lay in the range of 152 to 153 °C.

On to `COc1ccc(CCc2c(Cc3ccccc3)sc3ccccc23)cc1`, for which the melting point fell in the range of 68 to 70 °C.

In the case of `COc1nc2ccccc2nc1NC(=O)N1CCN(c2ccc(C(C)=O)cc2)CC1`, the melting point lay in the range of 198 to 200 °C.

`Nc1cc(=O)n(Cc2ccc(Br)c(Br)c2)[nH]1` showed a melting point of 182 °C.

For `CSc1c(F)cc(CC(=O)c2ccccc2)cc1F`, the melting point is 71.8 to 71.9 °C.

For the molecule `CC(=O)c1cccc(NC(=O)C2CC2)c1`, the melting point is 136 to 137 °C.

Consider `COc1cc2c(c3c1OC(C)(C)C3)C(c1ccnc(-n3c(=O)ccc4ccccc43)c1)=NC(C)(C)C2`, for which the melting point was in the range of 190 to 191 °C.

The molecule `Cc1ccccc1C(CCC(=O)NS(=O)(=O)c1ccccc1)Oc1cc(OCc2ccsc2)ccc1C#N` (racemic) gave a melting point of 68 to 70 °C.

Take `O=C(Nc1ccc2cc(CN3CCCCCC3)cnc2c1)c1ccc(-c2ccc(Cl)cc2)cc1`: the melting point was 204 °C.

Turning to `Cc1ccc(-c2nc3ccc(OCCN4CCCCC4)cc3n2-c2ccccc2)cc1C`, the melting point was 111 °C.

Regarding `CCCCC(=O)NC(C(=O)OCC)=C(N)Sc1ccccc1`, the melting point was 115 °C.

For `CCOc1cc(-c2cc(C(F)F)n3ncc(C(=O)Nc4cccc(S(N)(=O)=O)c4)c3n2)ccc1C(F)(F)F`, the melting point came to 254 °C.

In turn, `CC(C)n1nc(-c2sc(NC(=O)c3ccc(CN4CCCCC4)cc3)nc2-c2ccccc2)ccc1=O` registered a melting point of 136 to 138 °C.

`C#CCC(CC#C)NC(=O)OC(C)(C)C` displayed a melting point of 64 to 67 °C.

Consider `COc1cc2nc(N)nc(-c3ccc(O)cc3Cl)c2cc1OC`, for which the melting point is 245 to 247 °C.

In the case of `O=C1c2cc(O)ccc2CN1c1ccc2sccc2c1`, the melting point was 226 to 228 °C.

As to `NS(=O)(=O)c1ccc(C2=C(c3ccc(F)cc3)CC3(CCC3)C2)cc1`, the melting point lay within 118 to 119 °C.

With `Cc1cc(=O)[nH]c2cc(O)cc(O)c12`, the melting point is > 300 °C.

As to `O=c1[nH]c2ncc(-c3ccc4[nH]cnc4c3)nc2n1CCC1CCOCC1`, the melting point lay in the range of 264 to 265 °C.

In the case of `C[Si](C)(C)OC(Cn1cncn1)(Cn1cncn1)c1ccc(F)cc1F`, the melting point was 69 to 71 °C.

For `COc1ccc2sc(C(N)=O)c(Sc3ccccc3)c2c1`, the melting point is 194 to 196 °C.

Regarding `COc1cc2c(cc1OC)CN(c1nc(N)c3cc(OC)c(OC)cc3n1)CCC2`, the melting point was 122 to 124 °C.

As to `O=C(NCCN1CCNCC1)c1cccc(C=CC(=O)N2CCc3c([nH]c4ccccc34)C2c2ccc3c(c2)OCO3)c1` (centres undefined), the melting point fell in the range of 138 to 140 °C.
